Test results published in patent US9867862B2, “Compounds and method for treating or preventing disease conditions associated with alpha-1-antitrypsin” (AMICUS THERAPEUTICS, INC., priority 2010, dated 2018).
Peptide text beside a SMILES is read from it.

How the values were obtained:
ZAT [1] = molecular target: T1, ZAT (Homo sapiens, UniProt P01009, E366K); conditions: background studies; cited from earlier work
ZAT [2] = molecular target: T1, ZAT; assay: In vitro polymerization assay (native gel, western blot); type: biochemical; conditions: FIG. 3 western blot; peptides at 1 mM with Z-AT, 4 hours 37° C. then 30 minutes 62° C.; versus control (no peptide)
Experimental: An in vitro polymerization assay was employed to screen the ability of a pharmacological chaperone to inhibit polymerization. […] In brief, M-AT or Z-AT was incubated at 37° C. for 4 hours, followed by 30 minutes at 62° C. The samples were then run on a Bis-Tris native gel and either blotted onto PVDF or detected with colloidal blue staining. Peptides at 1 mM were incubated with equal amounts (50 ng) of Z-AT for 4 hours at 37° C., followed by a 62° C. pulse for 30 minutes. Samples were separated on a 4-12% Bis-Tris native gel, blotted onto PVDF and the blot probed with a human specific antibody for alpha-1-antitrypsin. Additionally, in the case of samples from human plasma, a western blot was performed to assess the level of alpha-1-antitrypsin. polymerization. The inducible HeLa cell line retains Z-AT intracellularly as little Z-AT can be detected in the media. The Z-AT contained in lysates is apparently not processed to complex N-glycans as the molecular weight is slightly lower than M-AT purified from plasma, which is consistent with the findings of others. The intracellular material is endo H sensitive indicative of high mannose N-linked glycans.

alpha-1-antitrypsin = alpha-1-antitrypsin (Homo sapiens, UniProt P01009, E366K); assay: Alpha-1-antitrypsin elastase inhibition assay; type: biochemical
Chain of alpha-1-antitrypsin (P01009 25-418 E366K): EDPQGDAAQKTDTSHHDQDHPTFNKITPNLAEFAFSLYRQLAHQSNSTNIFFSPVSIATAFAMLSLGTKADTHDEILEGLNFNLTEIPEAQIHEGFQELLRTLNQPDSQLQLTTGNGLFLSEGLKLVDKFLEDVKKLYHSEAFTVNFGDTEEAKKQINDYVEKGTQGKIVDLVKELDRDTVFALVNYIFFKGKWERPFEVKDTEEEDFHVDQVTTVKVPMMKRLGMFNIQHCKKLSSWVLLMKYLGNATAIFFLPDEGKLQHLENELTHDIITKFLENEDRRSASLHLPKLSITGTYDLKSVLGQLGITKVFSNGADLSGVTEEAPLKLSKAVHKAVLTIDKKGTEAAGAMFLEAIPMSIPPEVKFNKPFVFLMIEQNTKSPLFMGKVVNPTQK
Source text: An elastase inhibition assay was developed to measure the effects of a test compound on the inhibitory activity of secreted Z-AT. In one embodiment, to detect elastase activity, bovine elastin was labeled with BODIPY, which causes the fluorescence of the conjugate to be quenched. This non-fluorescent substrate was digested by elastase to yield highly fluorescent fragments. Alternatively, the non-fluorescent substrate may be digested by another protease to yield fluorescent fragments. The activity of α-1-antitrypsin was monitored by measuring a decrease in fluorescent signal, indicative of the elastase inhibitory activity of α-1-antitrypsin. […] In one embodiment, the resulting fluorescence was monitored in a Perkin Elmer Victor V plate reader using absorption and emission filters for fluorescein […].
Additional cell lines to screen for pharmacologic chaperones and to identify surrogate markers of Z-AT expression were developed using an inducible promoter system. The inducible systems are useful for determining if particular chaperones need to be present prior to Z-AT translation in the endoplasmic reticulum to induce secretion of Z-AT and/or inhibit […]

ZAT [3] = molecular target: T1, ZAT; assay: Western blot of intracellular ZAT in ZAT inducible CHO cells; type: cell-based; set-up: expressed in transfected cells; host or cells: inducible serum-free CHO cells (tetracycline repressor control); conditions: for intracellular levels of ZAT, normalized densitometry: FIG. 14 graph
Experimental: Serum Free CHO and HeLa cells in which expression of Z-AT is under control of the tetracycline repressor were grown to confluence. To analyze the intra- and extracellular production of Z-AT, media was collected and cells were lysed in non-ionic detergent. Media and lysates were analyzed on a NuPAGE SDS gel followed by western blotting utilizing a human specific sheep anti-human alpha-1-antitrypsin polyclonal antibody.
Furthermore, two compounds, compounds V and VI, decrease intracellular levels of ZAT. These compounds are shown in Table 2, along with structural data for each compound. […] The levels of intracellular levels of ZAT are even lower when treated at the higher concentration. […] FIG. 13 depicts a western blot of intracellular levels of ZAT after 1mM treatment. […] FIG. 14 is a graph of showing intracellular levels of ZAT after 1mM treatment with compounds V and VI. […] FIG. 15 is an in vitro polymerization assay with compounds I-VI, as well as Ac-TTAI-NH2 (SEQ ID NO: 6), a vehicle control and non-treated alpha-1-antitrypsin. There is an increase in polymerization after treatment with the low-molecular weight compounds.

ZAT [4] = molecular target: T1, ZAT; assay: Extracellular alpha-1-antitrypsin activity in media of ZAT inducible CHO cells; type: cell-based; set-up: expressed in transfected cells; host or cells: inducible serum-free CHO cells (tetracycline repressor control); conditions: FIG. 11, increasing treatment
Source text: An elastase inhibition assay was developed to measure the effects of a test compound on the inhibitory activity of secreted Z-AT. In one embodiment, to detect elastase activity, bovine elastin was labeled with BODIPY, which causes the fluorescence of the conjugate to be quenched. This non-fluorescent substrate was digested by elastase to yield highly fluorescent fragments. Alternatively, the non-fluorescent substrate may be digested by another protease to yield fluorescent fragments. The activity of α-1-antitrypsin was monitored by measuring a decrease in fluorescent signal, indicative of the elastase inhibitory activity of α-1-antitrypsin. A test compound was added to determine its effect on the elastase inhibitory activity of α-1-antitrypsin. In one embodiment, the resulting fluorescence was monitored in a Perkin Elmer Victor V plate reader using absorption and emission filters for fluorescein […].
Serum free CHO cell lines were developed, expressing M-AT, Z-AT (Glu342Lys) and the S mutation (Glu264Val), so that secreted alpha-1-antitrypsin activity could be measured directly from media without interference from bovine, alpha-1-antitrypsin introduced into the media from serum. Briefly, cDNA was isolated by PCR from first strand human liver cDNA using conventional cloning methods. […]

ZAT [5] = molecular target: T1, ZAT; conditions: background studies; cited from earlier work; remark: listed apart in the source
[6] = 100 μM, FIG. 9 western blot, ZAT inducible CHO cells
[7] = 1 mM, FIG. 10 western blot, ZAT inducible CHO cells, compared with 100 μM

T1 sequence (P01009 25-418 E366K): as above

Compound: O=C(O)CCCc1ccccc1 [4-phenylbutyric acid]
- secretion of Z-AT from cells (ZAT [1]): can increase secretion of Z-AT from cells

Compound: CC(=O)NC(C(=O)NC(CCC(=O)O)C(=O)NC(C)C(=O)NC(C)C(N)=O)C(C)O (stereo not drawn) [Ac-TEAA-NH2, Ac-Thr-Glu-Ala-Ala-NH2] (Ac-TEAA-NH2; configuration not given here)
- alpha-1-antitrypsin polymerization (ZAT [2]): significantly less alpha-1-antitrypsin polymerization

Compound: CC(=O)NC(C(=O)NC(CCC(=O)O)C(=O)NC(C)C(=O)NC(C)C(=O)NCC(N)=O)C(C)O (stereo not drawn) [Ac-TEAAG-NH2, Ac-Thr-Glu-Ala-Ala-Gly-NH2] (Ac-TEAAG-NH2; configuration not given here)
- alpha-1-antitrypsin polymerization (ZAT [2]): significantly less alpha-1-antitrypsin polymerization

Compound: CC(=O)NC(C(=O)NC(CCC(=O)O)C(=O)NC(C(=O)NC(C)C(N)=O)C(C)C)C(C)O (stereo not drawn) [Ac-TEVA-NH2, Ac-Thr-Glu-Val-Ala-NH2] (Ac-TEVA-NH2; configuration not given here)
- alpha-1-antitrypsin polymerization (ZAT [2]): significantly less alpha-1-antitrypsin polymerization
- inhibition of elastase activity by alpha-1-antitrypsin in the presence of peptide (alpha-1-antitrypsin; FIG. 2): inhibits elastase activity significantly, in fact to a level comparable to that of wild type alpha-1-antitrypsin
- inhibition of alpha-1-antitrypsin activity by the peptide (alpha-1-antitrypsin; at concentrations required to inhibit polymerization): does not inhibit alpha-1-antitrypsin activity

Compound: CC(=O)NC(C(=O)NC(CO)C(=O)NC(C)C(=O)NC(C)C(N)=O)C(C)O (stereo not drawn) [Ac-TSAA-NH2, Ac-Thr-Ser-Ala-Ala-NH2] (Ac-TSAA-NH2; configuration not given here)
- alpha-1-antitrypsin polymerization (ZAT [2]): significantly less alpha-1-antitrypsin polymerization

Compound: COc1ccc(C(O)C(=O)NNC(=O)N[C@H](C(N)=O)C(C)O)cc1O (stereo partly drawn) [Compound VI]
- intracellular levels of ZAT (ZAT [3]; [6]): lower levels of ZAT
- intracellular levels of ZAT (ZAT [3]; [7]): even lower
- intracellular levels of ZAT (ZAT [3]; 1 mM, FIG. 13 western blot): significant reduction in ZAT levels intracellularly
- intracellular levels of ZAT, normalized densitometry (ZAT [3]; 1 mM): Levels are lower

Compound: COc1ccc(C(O)C(=O)NNC(=O)N[C@@H](CO)C(N)=O)cc1O (stereo partly drawn) [Compound V]
- intracellular levels of ZAT (ZAT [3]; [6]): lower levels of ZAT
- intracellular levels of ZAT (ZAT [3]; [7]): even lower
- intracellular levels of ZAT (ZAT [3]; 1 mM, FIG. 13 western blot): significant reduction in ZAT levels intracellularly
- intracellular levels of ZAT, normalized densitometry (ZAT [3]; 1 mM): Levels are lower
- extracellular levels of ZAT and alpha-1-antitrypsin activity (ZAT [4]): higher activity levels with higher treatment

Compound: O=C(O)CC(O)(CC(=O)O)C(=O)O [citrate]
- in vitro polymerization of Z-AT (ZAT [5]): block in vitro polymerization of Z-AT

Compound: Ac-TTAI-NH2
- in vitro polymerization of Z-AT (ZAT [5]): block in vitro polymerization of Z-AT
